Among the data in patent US20090209601A1, “USE OF RXR AGONISTS FOR THE TREATMENT OF OSTEOARTHRITIS” (Wyeth, priority 2008, published 2009) are RXRα expression and RXRγ expression values, retold here.

In one test the test system is RXRα. As to the kind of experiment: RXRα expression by qRT-PCR in cytokine-treated primary articular chondrocytes. To be noted: primary human articular chondrocytes (n=4 donors), monolayer culture, 18 hours; IL-1β 1 ng/ml, TNFα 10 ng/ml; vs vehicle/untreated. The test is classed as cell-based. On the procedure:
(§1) For isolation of RNA from chondrocytes in monolayer culture, pellets were digested with collagenase (2.5 mg/ml, Sigma, St Louis, Mo.) and RNA was subsequently prepared using TRIzol reagent (Invitrogen) according to the manufacturer's protocol. Primary chondrocytes in monolayer culture were lysed by direct addition of TRIzol reagent followed by standard TRIzol RNA purification methodologies.
(§2) Chondrocytes were isolated from fresh human articular cartilage using a standard method previously described (Heinlein et al., Endocr. Rev. 25:276-308 (2004)). Cells were cultured in 10% FBS containing DMEM/F12 growth media for 2-3 days in 12 well culture plates at a density of 1-2×10^6 cells/well. Chondrocyte cultures were stimulated with cytokines (TNFα: 10 ng/ml; IL-1β: 1 ng/ml) for 18 hours.
(§3) cDNA was prepared from purified RNA using the High-Capacity cDNA Archive Kit (Applied Biosystems, catalog #4322171) according to the manufacturer's instructions. Quantitative real-time PCR was performed using either human TaqMan® Gene Expression assays or TaqMan® Low Density Arrays (TLDA) from Applied Biosystems. Thermal cycling was performed using either an ABI Prism 7900 Sequence Detection System (for TLDA) or an ABI Prism 7700 Sequence Detection System (for individual TaqMan® Gene Expression Assays). […]
(Real-time PCR tracks product formation cycle by cycle.)

A further test concerns RXRγ. As to the kind of experiment: RXRγ expression by qRT-PCR in cytokine-treated primary articular chondrocytes. The test is classed as cell-based. The conditions noted are these: primary human articular chondrocytes (n=4 donors), monolayer culture, 18 hours; IL-1β 1 ng/ml, TNFα 10 ng/ml; vs vehicle/untreated. The method, then:
as §1, §2, §3

With “IL-1: inflammatory cytokine purchased from R&D Systems, used to stimulate chondrocyte cultures”, the RXRα expression result in the test on RXRα is “significantly reduced”. Besides, the RXRγ expression entry in the test on RXRγ is “not”.
